In ChEMBL document CHEMBL4828726, “Modification of 5-methylphenanthridium from benzothiazoles to indoles as potent FtsZ inhibitors: Broadening the antibacterial spectrum toward vancomycin-resistant enterococci” (Eur J Med Chem, 2021):
Activity calls are given as the source filed them. No cut-off for these calls is given here.

Assays:
Pseudomonas aeruginosa [1] = assay: Antibacterial activity against penicillin-susceptible Pseudomonas aeruginosa ATCC 27853 assessed as inhibition of bacterial growth measured after 20 hrs by two-fold microdilution assay; assay type: functional
[2] = tested on: Staphylococcus epidermidis; assay: Antibacterial activity against penicillin-resistant Staphylococcus epidermidis assessed as inhibition of bacterial growth measured after 20 hrs by two-fold microdilution assay; assay type: functional
Staphylococcus aureus [3] = assay: Ratio of MBC to MIC against erythromycin-susceptible Staphylococcus aureus ATCC 25923; assay type: functional
Escherichia coli = assay: Antibacterial activity against penicillin-susceptible Escherichia coli ATCC 25922 assessed as inhibition of bacterial growth measured after 20 hrs by two-fold microdilution assay; assay type: functional
Streptococcus pyogenes [4] = assay: Antibacterial activity against erythromycin-susceptible Streptococcus pyogenes assessed as inhibition of bacterial growth measured after 20 hrs by two-fold microdilution assay; assay type: functional
Staphylococcus aureus [5] = assay: Antibacterial activity against Staphylococcus aureus ATCC 25923 assessed as fold increase in MIC value measured after 1 passage by Multi passage resistance assay; assay type: functional
[6] = molecular target: T1, Cell division protein FtsZ (Bacillus subtilis (strain 168)) (UniProt P17865); assay: Inhibition of Bacillus subtilis FtsZ assessed as promotion of FtsZ polymerization measured after […] by fluorescence spectrometer based light scattering assay; conditions: dose 2.5-10 µg/ml
T1 sequence (whole entry): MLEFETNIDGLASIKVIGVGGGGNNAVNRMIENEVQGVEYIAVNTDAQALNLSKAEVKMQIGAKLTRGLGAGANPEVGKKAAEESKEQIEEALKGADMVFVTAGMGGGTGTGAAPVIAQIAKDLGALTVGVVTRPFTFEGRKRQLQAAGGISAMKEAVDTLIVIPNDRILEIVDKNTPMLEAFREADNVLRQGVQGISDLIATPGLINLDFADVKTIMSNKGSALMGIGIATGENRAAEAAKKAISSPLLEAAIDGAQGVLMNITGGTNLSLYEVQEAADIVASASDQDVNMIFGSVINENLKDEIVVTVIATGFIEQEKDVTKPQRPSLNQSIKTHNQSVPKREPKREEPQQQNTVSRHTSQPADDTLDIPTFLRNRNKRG

Bacillus subtilis [7] = assay: Bactericidal activity against penicillin-susceptible Bacillus subtilis ATCC 9372 assessed as inhibition of bacterial growth measured after 20 hrs by two-fold microdilution assay; assay type: functional
Enterococcus faecium [8] = assay: Antibacterial activity against Vancomycin-susceptible Enterococcus faecium ATCC 19434 assessed as inhibition of bacterial growth measured after 20 hrs by two-fold microdilution assay; assay type: functional
Bacillus subtilis [9] = assay: Antibacterial activity against penicillin-susceptible Bacillus subtilis ATCC 9372 assessed as inhibition of bacterial growth measured after 20 hrs by two-fold microdilution assay; assay type: functional
Enterococcus faecalis [10] = assay: Antibacterial activity against Vancomycin-susceptible Enterococcus faecalis ATCC 29212 assessed as inhibition of bacterial growth measured after 20 hrs by two-fold microdilution assay; assay type: functional
Enterococcus faecalis [11] = assay: Antibacterial activity against Vancomycin-resistant Enterococcus faecalis ATCC 51299 assessed as inhibition of bacterial growth measured after 20 hrs by two-fold microdilution assay; assay type: functional
Staphylococcus aureus [12] = assay: Antibacterial activity against clinical isolate Staphylococcus aureus C1 assessed as inhibition of bacterial growth measured after 20 hrs by two-fold microdilution assay; assay type: functional
Enterococcus faecium [13] = assay: Antibacterial activity against Vancomycin-resistant Enterococcus faecium ATCC 51559 assessed as inhibition of bacterial growth measured after 20 hrs by two-fold microdilution assay; assay type: functional
Pseudomonas aeruginosa [14] = assay: Anti-biofilm activity against Pseudomonas aeruginosa ATCC 27853 assessed as inhibition of biofilm formation at 4 to 64 ug/ml measured after 20 hrs by crystal violet staining based biofilm formation inhibition assay; assay type: functional, organism-based; conditions: dose 4-64 µg/ml
Staphylococcus aureus [15] = assay: Bactericidal activity against methicillin-resistant Staphylococcus aureus ATCC43300 assessed as inhibition of bacterial growth measured after 20 hrs by two-fold microdilution assay; assay type: functional
Staphylococcus aureus [16] = assay: Antibacterial activity against Staphylococcus aureus ATCC 25923 infected in Kunming mouse assessed as decrease in viable bacterial in eye blood at 25 mg/kg, ip measured after 1 hr; assay type: functional, organism-based
Staphylococcus aureus [17] = assay: Ratio of MBC to MIC against penicillin-resistant Staphylococcus aureus ATCC 31007; assay type: functional
Staphylococcus aureus [18] = assay: Bactericidal activity against penicillin-resistant Staphylococcus aureus ATCC 31007 assessed as inhibition of bacterial growth measured after 20 hrs by two-fold microdilution assay; assay type: functional
Staphylococcus aureus [19] = assay: Bactericidal activity against erythromycin-susceptible Staphylococcus aureus ATCC 25923 assessed as inhibition of bacterial growth measured after 20 hrs by two-fold microdilution assay; assay type: functional
Staphylococcus aureus [20] = assay: Antibacterial activity against Staphylococcus aureus ATCC 25923 assessed as reduction of colony forming units at 4 to 64 ug/ml measured up to 24 hrs by Time kill assay; assay type: functional, organism-based; conditions: dose 4-64 µg/ml, time hrs <=24
Bacillus subtilis [21] = assay: Ratio of MBC to MIC against penicillin-susceptible Bacillus subtilis ATCC 9372; assay type: functional
Bacillus pumilus [22] = assay: Bactericidal activity against penicillin-susceptible Bacillus pumilus CMCC63202 assessed as inhibition of bacterial growth measured after 20 hrs by two-fold microdilution assay; assay type: functional
Streptococcus pyogenes [23] = assay: Antibacterial activity against erythromycin-resistant Streptococcus pyogenes assessed as inhibition of bacterial growth measured after 20 hrs by two-fold microdilution assay; assay type: functional
Bacillus pumilus [24] = assay: Antibacterial activity against penicillin-susceptible Bacillus pumilus CMCC63202 assessed as inhibition of bacterial growth measured after 20 hrs by two-fold microdilution assay; assay type: functional
Staphylococcus aureus [25] = assay: Antibacterial activity against methicillin-resistant Staphylococcus aureus ATCC43300 assessed as inhibition of bacterial growth measured after 20 hrs by two-fold microdilution assay; assay type: functional
Staphylococcus aureus [26] = assay: Antibacterial activity against erythromycin-susceptible Staphylococcus aureus ATCC 25923 assessed as inhibition of bacterial growth measured after 20 hrs by two-fold microdilution assay; assay type: functional
[27] = Hemolytic activity against mouse RBC at 1 to 16 ug/ml measured after 1 hr by hemolysis assay relative to Triton X-100; assay type: ADME, cell-based, Erythrocyte; conditions: mouse red blood cells (erythrocytes), at 1 to 16 µg/mL, dose 1-16 µg/ml, read-out: Activity
Bacillus pumilus [28] = assay: Inhibition of Bacillus pumilus CMCC63202 FtsZ assessed as change in morphology by measuring increase of cell length at 16 ug/ml measured after 20 hrs by optical microscopy; conditions: dose 16.0 µg/ml
Staphylococcus aureus [29] = assay: Antibacterial activity against penicillin-resistant Staphylococcus aureus ATCC 31007 assessed as inhibition of bacterial growth measured after 20 hrs by two-fold microdilution assay; assay type: functional
Staphylococcus aureus [30] = assay: Antibacterial activity against Staphylococcus aureus ATCC 25923 assessed as fold change in MIC value measured after 14 passages by Multi passage resistance assay; assay type: functional, organism-based
Bacillus pumilus [31] = assay: Inhibition of Bacillus pumilus CMCC63202 FtsZ assessed as aggregation of FtsZ at 10 ug/ml pre-incubated for 30 mins followed by addition of GTP and measured after 30 mins measured after by Transmission electron microscopic method; conditions: dose 10.0 µg/ml
Staphylococcus aureus [32] = assay: Antibacterial activity against Staphylococcus aureus ATCC 25923 assessed as decrease of bacterial growth measured up to 24 hrs by Time kill assay; assay type: functional, organism-based; conditions: dose 4-32 µg/ml, time hrs <=24
Staphylococcus aureus [33] = assay: Antibacterial activity against Staphylococcus aureus ATCC 25923 infected in Kunming mouse assessed as decrease in viable bacterial in eye blood at 5 mg/kg, ip measured after 1 hr; assay type: functional, organism-based
Enterococcus faecalis [34] = assay: Bactericidal activity against Vancomycin-resistant Enterococcus faecalis ATCC 51299 assessed as inhibition of bacterial growth measured after 20 hrs by two-fold microdilution assay; assay type: functional
Enterococcus faecalis [35] = assay: Ratio of MBC to MIC against Vancomycin-resistant Enterococcus faecalis ATCC 51299; assay type: functional
Enterococcus faecium [36] = assay: Bactericidal activity against Vancomycin-resistant Enterococcus faecium ATCC 51559 assessed as inhibition of bacterial growth measured after 20 hrs by two-fold microdilution assay; assay type: functional
Enterococcus faecium [37] = assay: Ratio of MBC to MIC against Vancomycin-susceptible Enterococcus faecium ATCC 19434; assay type: functional
Enterococcus faecalis [38] = assay: Ratio of MBC to MIC against Vancomycin-susceptible Enterococcus faecalis ATCC 29212; assay type: functional
Bacillus pumilus [39] = assay: Ratio of MBC to MIC against penicillin-susceptible Bacillus pumilus CMCC63202; assay type: functional
Enterococcus faecalis [40] = assay: Bactericidal activity against Vancomycin-susceptible Enterococcus faecalis ATCC 29212 assessed as inhibition of bacterial growth measured after 20 hrs by two-fold microdilution assay; assay type: functional
Enterococcus faecium [41] = assay: Bactericidal activity against Vancomycin-susceptible Enterococcus faecium ATCC 19434 assessed as inhibition of bacterial growth measured after 20 hrs by two-fold microdilution assay; assay type: functional

Compound: Cc1cccc2c[n+](C)c3ccc(-c4ccc5ccn(Cc6ccccc6)c5c4)cc3c12.[Cl-]
- MIC (Pseudomonas aeruginosa [1]): > 64 µg/mL
- MIC [2]: 8 µg/mL
- Ratio (Staphylococcus aureus [3]): 32
- MIC (Escherichia coli): > 64 µg/mL
- MIC (Streptococcus pyogenes [4]): 8 µg/mL
- fold change (FC) (Staphylococcus aureus [5]): 2
- inhibition [6]: Active
- MBC (Bacillus subtilis [7]): 16 µg/mL
- MIC (Enterococcus faecium [8]): 8 µg/mL
- MIC (Bacillus subtilis [9]): 4 µg/mL
- MIC (Enterococcus faecalis [10]): 8 µg/mL
- MIC (Enterococcus faecalis [11]): 16 µg/mL
- MIC (Staphylococcus aureus [12]): 2 µg/mL
- MIC (Enterococcus faecium [13]): 8 µg/mL
- Activity (Pseudomonas aeruginosa [14]): inactive
- MBC (Staphylococcus aureus [15]): 64 µg/mL
- Activity (Staphylococcus aureus [16]): Active
- Ratio (Staphylococcus aureus [17]): 16
- MBC (Staphylococcus aureus [18]): 64 µg/mL
- MBC (Staphylococcus aureus [19]): 32 µg/mL
- Activity (Staphylococcus aureus [20]): Active
- Ratio (Bacillus subtilis [21]): 4
- MBC (Bacillus pumilus [22]): > 64 µg/mL
- MIC (Streptococcus pyogenes [23]): 8 µg/mL
- MIC (Bacillus pumilus [24]): 4 µg/mL
- MIC (Staphylococcus aureus [25]): 2 µg/mL
- MIC (Staphylococcus aureus [26]): 1 µg/mL
- hemolysis at 1 h [27]: < 8%
- inhibition (Bacillus pumilus [28]): Active
- MIC (Staphylococcus aureus [29]): 4 µg/mL
- Activity (Staphylococcus aureus [30]): Active
- inhibition (Bacillus pumilus [31]): Active
- Activity (Staphylococcus aureus [32]): Dose-Dependent Effect
- Activity (Staphylococcus aureus [33]): Active

Compound: Cc1ccc2c[n+](C)c3ccc(-c4ccc5ccn(Cc6ccc(C(F)(F)F)cc6)c5c4)cc3c2c1.[Cl-]
- MIC (Pseudomonas aeruginosa [1]): > 64 µg/mL
- MIC [2]: 2 µg/mL
- Ratio (Staphylococcus aureus [3]): 2
- MIC (Escherichia coli): > 64 µg/mL
- MBC (Enterococcus faecalis [34]): 32 µg/mL
- Ratio (Enterococcus faecalis [35]): 8
- MIC (Streptococcus pyogenes [4]): 8 µg/mL
- MBC (Enterococcus faecium [36]): 32 µg/mL
- MBC (Bacillus subtilis [7]): > 8 µg/mL
- MIC (Enterococcus faecium [8]): 2 µg/mL
- MIC (Bacillus subtilis [9]): 8 µg/mL
- MIC (Enterococcus faecalis [10]): 4 µg/mL
- MIC (Enterococcus faecalis [11]): 4 µg/mL
- MIC (Staphylococcus aureus [12]): 2 µg/mL
- MIC (Enterococcus faecium [13]): 4 µg/mL
- MBC (Staphylococcus aureus [15]): 8 µg/mL
- Ratio (Enterococcus faecium [37]): 8
- Ratio (Enterococcus faecalis [38]): 4
- Ratio (Staphylococcus aureus [17]): 4
- MBC (Staphylococcus aureus [18]): 16 µg/mL
- Ratio (Bacillus pumilus [39]): 8
- MBC (Staphylococcus aureus [19]): 4 µg/mL
- MBC (Enterococcus faecalis [40]): 16 µg/mL
- MBC (Enterococcus faecium [41]): 16 µg/mL
- Ratio (Bacillus subtilis [21]): 1
- MBC (Bacillus pumilus [22]): 16 µg/mL
- MIC (Streptococcus pyogenes [23]): 8 µg/mL
- MIC (Bacillus pumilus [24]): 2 µg/mL
- MIC (Staphylococcus aureus [25]): 4 µg/mL
- MIC (Staphylococcus aureus [26]): 2 µg/mL
- MIC (Staphylococcus aureus [29]): 8 µg/mL
